Test results reported in PubChem BioAssay (NCI).
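Five concentrations, 48 hours, 96-well plates. GI50 marks 50% less growth. Definition used: TGI = concentration required for complete inhibition of growth.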

What was measured:
Assay in all cases: NCI tumour cell line growth inhibition, 48 h
[1] = tested on: T-47D breast
[2] = tested on: DU-145 prostate
[3] = tested on: MCF7 breast
[4] = tested on: PC-3 prostate
[5] = tested on: HCT-15 colon

Compound | GI50 [1] [µM] | TGI [1] [µM] | GI50 [2] [µM] | TGI [2] [µM] | GI50 [3] [µM] | TGI [3] [µM] | GI50 [4] [µM] | TGI [4] [µM] | GI50 [5] [µM] | TGI [5] [µM]
Cn1cc(C2=C(c3cn(CCCN=C(N)N)c4ccccc34)C(=O)NC2=O)c2ccccc21 | > 25 | > 25 | > 25 | > 25 | > 25 | > 25 | > 23.1 | > 25 | > 25 | > 25
N#C/C(C(=S)Nc1ccccc1)=C1/NN=C2c3ccccc3C(=O)NN21 | 36.7 | > 100 | 28.8 | > 100 | 22.8 | 77.5 | – | – | 27.6 | > 100
O=C(O)C1C(C(=O)O)C(C(=O)O)C1C(=O)O (stereo not given) | – | > 100 | – | > 100 | – | > 100 | – | > 100 | – | > 100
COc1cc2c3c(n(CCCBr)c(=O)c2cc1OC)-c1ccc(NC(C)=O)cc1C3=O | 1.84 | > 100 | 4.65 | > 100 | 1.82 | > 100 | 24.8 | > 100 | 30.8 | > 100
COc1ccc(/C(=N/Nc2ccc([N+](=O)[O-])cc2)Sc2cc(Cl)c(C)cc2S(N)(=O)=O)cc1 | 7.16 | 19.2 | 3.8 | 9.77 | 4.84 | 15.6 | 5.2 | 17.6 | 7.25 | > 40.8
NC(N)=NC(N)=Nc1cc2ccccc2c2ccccc12 | 11 | 29.3 | 11.9 | 25 | 3.7 | 18.8 | 7.51 | 24.9 | 14.9 | 30.5
CC12CCCC(CC(=O)c3[nH]c4ccccc4c31)C2 (stereo not given) | 0.65 | > 100 | 2.04 | 24.3 | 0.4 | > 56.7 | 0.698 | > 100 | 0.413 | 24.4
CN1C(NC(=O)c2ccc(Cl)nc2)=NS(=O)(=O)c2cc(Cl)ccc21 | > 100 | > 100 | > 100 | > 100 | > 100 | > 100 | > 100 | > 100 | > 100 | > 100
CC(=O)[O][Hg][c]1c(C)c(C)c(C)c(C)c1C | 1.36 | 3.74 | 8.79 | 22.8 | 0.843 | 2.13 | 2 | 5.68 | 1.38 | 2.93
C[C@]12CC[C@@H]3c4ccc(Oc5nc(N6CC6)nc(N6CC6)n5)cc4CC[C@H]3[C@@H]1CCC2=O | 3.55 | 19.4 | 1.82 | 6.46 | 2.78 | 14.7 | 3.46 | 21.8 | 2.85 | 18.6
COc1cc(C(=O)O[C@H](C(N)=O)[C@]2(C)CO2)c2ccccc2c1 | 10.7 | 27.3 | – | – | 27.3 | > 100 | 25 | > 100 | 23.8 | 70.6
COc1cc2c(/C=C3/C(=O)Nc4cccc(Cl)c43)c(Cl)n(Cc3ccccc3)c2cc1C | 14 | > 100 | 11.2 | > 100 | 3.88 | > 45.3 | 4.29 | > 38 | 3.12 | 31.3
Cc1[nH]c(N=Nc2ccccc2)nc1N=Nc1ccccc1 | 2.77 | > 46.8 | 3.17 | > 34.9 | 2.73 | 15.3 | 4.99 | > 51.6 | 1.4 | 22.1
COc1ccc(-c2cc3c(nn2)-c2ccccc2C3=O)cc1 | > 100 | > 100 | > 100 | > 100 | 36.1 | > 100 | > 100 | > 100 | > 100 | > 100
COc1ccc(S(=O)(=O)N(Cc2ccc3c(n2)C=CC(C)(C)O3)C2CCC2)cc1OC | < 0.01 | 0.231 | < 0.01 | 3.45 | 0.0169 | > 38.2 | < 0.01 | 2.37 | 0.0154 | > 33.6
COc1ccc2cc(C(=O)/C=C/c3cccc(OC)c3OC)ccc2c1 | 3.9 | 35.5 | 15.3 | 34.2 | 0.455 | 22.9 | 17.4 | 46.1 | 3.53 | 15.4
CCCCn1c(-c2ccc(C(=O)O/N=C(\N)c3ccc(OC)cc3)cc2)nc(-c2ccccc2)c1-c1ccccc1 | 1.92 | 4.59 | 1.27 | 2.59 | – | – | – | – | – | –
CCCCC/C=C/C/C=C/CCCCCCCC1=NC(C)(C)CN1C(C)C | 1.97 | 3.98 | 1.73 | 3.11 | 1.54 | 2.87 | 1.7 | 3.41 | 1.63 | 3.17
C[C@]12CC[C@@H]3c4ccc(O)cc4CC[C@H]3[C@@H]1CC[C@@H]2NS(=O)(=O)c1ccc(C(F)(F)F)cc1 | 2.68 | 6.32 | 2.75 | 7.11 | 2.26 | 5 | 1.99 | 5.24 | 1.68 | 3.62
COc1ccc(C2CC(=O)c3c(O)c(OC)c(OC)c(OC)c3O2)c(O)c1 (stereo not given) | 0.113 | 24.6 | 0.25 | 15.9 | 0.0462 | 15.7 | 0.0707 | 20.8 | 0.0498 | 17.8
O=C(CCCSc1nc(-c2ccc(Cl)cc2)cc(-c2ccc(Cl)cc2)n1)NO | 1.37 | 16.7 | 0.665 | 8.94 | 1.23 | 12.4 | 1.21 | 16.1 | 0.385 | 11.9
